Test results published in article PMC12363342, “Investigating the N-terminal linker histone H1 subtypes as substrates for JmjC lysine demethylases” (RSC Chemical Biology, 2025).
Square brackets hold non-standard residues; d marks the D form. Ends that are not written are not given here. Lys(Me3) = C[N+](C)(C)CCCC[C@H](N)C(=O)O

Target: T1, KDM4D (Homo sapiens, UniProt Q6B0I6)
T1 construct: KDM4AM1-L359,[38]; KDM4DM1-L359,[39]; KDM4EM1-R336,[30]; His6 (N); made in house; host or cells: Escherichia coli
T1 sequence (Q6B0I6 1-359): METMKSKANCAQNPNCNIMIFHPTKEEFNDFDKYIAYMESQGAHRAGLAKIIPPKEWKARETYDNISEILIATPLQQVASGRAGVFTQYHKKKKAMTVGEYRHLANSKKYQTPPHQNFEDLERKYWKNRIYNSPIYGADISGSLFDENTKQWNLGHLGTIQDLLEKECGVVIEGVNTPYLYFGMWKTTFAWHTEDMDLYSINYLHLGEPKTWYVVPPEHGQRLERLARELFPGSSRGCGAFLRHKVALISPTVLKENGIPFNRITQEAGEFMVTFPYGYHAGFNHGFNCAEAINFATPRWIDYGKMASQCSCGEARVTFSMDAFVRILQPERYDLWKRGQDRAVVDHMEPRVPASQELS
Experiment: time-course 1H NMR assay of succinate production, KDM4D
Format: biochemical
Details: KDM4D 10 μM, 2OG 400 μM, peptide 400 μM; for oxidation of H1 peptide by KDM4D (succinate production arising from 2OG oxidation): 1H NMR 700 MHz, 298 K, Fe(II) 100 μM, L-ascorbate 1 mM, 50 mM Tris-d11 pH 7.5, 60 min, two independent experiments; for succinate production rate with KDM4D, relative: 1H NMR time course, pH 7.5, compared to H1.4K25me3
Source text: Fig. 6 Time-course ^1H NMR analysis for reactions of KDM4D with H1 peptides. (A) KDM4D-catalysed succinate production for H1.3K24me3 (turquoise), H1.4K25me3 (raspberry), and H1.5K26me3 (khaki) compared to that without peptides (black). (B) KDM4D in the presence of 2OG without the H1 peptide; note that only low-level succinate production is observed. (C) Production of succinate measured for KDM4D/H1.3K24me3 over time, as evidenced by increasing integration of the singlet at δ^1H 2.31 ppm (corresponding to the succinate methylenes). Assay conditions are described in the Experimental details section.
NMR spectra were acquired at 298 K using a Bruker AVIII 700 MHz NMR spectrometer equipped with a TCI helium-cooled CryoProbe. Data were processed using TopSpin v.3.6.2 software. Signal intensities were calibrated relative to TSP, δH 0 ppm, and the chemical shifts (ppm) are relative to the resonance of the solvent, δH 4.7 ppm. Assay mixtures contained KDM4D (10 μM), 2OG (400 μM), H1_20–34 peptide (400 μM), Fe(II) ammonium sulfate (100 μM), L-ascorbate (1 mM) and internal standard, 3-(trimethylsilyl)-2,2,3,3-tetradeuteropropionic acid (TSP, 800 μM) in 50 mM Tris-d11, pH 7.5. Aqueous stocks of 2OG, Fe(II) ammonium sulfate and L-ascorbate were prepared fresh on the day of testing. Samples were transferred to 3-mm diameter MATCH NMR tubes (CortecNet) and monitored by ^1H excitation sculpting with baseline optimisation using 16 transients. The time lapse between sample mixing and data acquisition was 6–7 min. The spectra were acquired every 2 min over 60 min. Starting material and product concentrations were quantified relative to the TSP concentration. Samples from two independent experiments were analysed by NMR spectroscopy.

KKKAR[Lys(Me3)]SAGAAKRKA [Peptide H1.4K25me3, 15-mer linker histone H1.4 residues 20-34 peptide, tri-methylated K25]
oxidation of H1 peptide by KDM4D (succinate production arising from 2OG oxidation): clear evidence for oxidation

KKKATK[Lys(Me3)]AAGAGAAK [Peptide H1.5K26me3, 15-mer linker histone H1.5 residues 20-34 peptide, tri-methylated K26]
oxidation of H1 peptide by KDM4D (succinate production arising from 2OG oxidation): clear evidence for oxidation
succinate production rate with KDM4D, relative: slightly slower succinate production compared to H1.4K25me3

KKKA[Lys(Me3)]KAGATAGKRK [Peptide H1.3K24me3, 15-mer linker histone H1.3 residues 20-34 peptide, tri-methylated K24]
oxidation of H1 peptide by KDM4D (succinate production arising from 2OG oxidation): clear evidence for oxidation
succinate production rate with KDM4D, relative: slightly slower succinate production compared to H1.4K25me3
